Common to all, as to type: in vivo
For experiment [1], the system named is Lolium perenne (LOLPE). Briefly: Example B pre-emergence herbicidal test, LOLPE. The following applies: Lolium perenne, 312 h, rate 250 g/ha, evaluated after 13 days, 100=total damage to plant, 0=no damage to plant. A digest of the protocol:
(§1)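 After sowing in standard soil, pots spent a day in the glasshouse (24/16° C, 14 h photoperiod, 65% humidity) before spraying with compound in acetone/water 50:50 with 0.5% Tween 20. Watering followed twice a day, and plants were evaluated 13 days on, with 100 meaning complete damage.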

For experiment [2], the system named is Alopecurus myosuroides (ALOMY). Briefly: Example B pre-emergence herbicidal test, ALOMY. The note with it: Alopecurus myosuroides, 312 h, rate 250 g/ha, evaluated after 13 days, 100=total damage to plant, 0=no damage to plant. An outline of the steps: as §1
Experiment [3] relates to Echinochloa crus-galli (ECHCG). Briefly: Example B pre-emergence herbicidal test, ECHCG. The following applies: Echinochloa crus-galli, 312 h, rate 250 g/ha, evaluated after 13 days, 100=total damage to plant, 0=no damage to plant. A digest of the protocol: as §1
Experiment [4] relates to Avena fatua (AVEFA). Briefly: Example B pre-emergence herbicidal test, AVEFA. The following applies: Avena fatua, 312 h, rate 250 g/ha, evaluated after 13 days, 100=total damage to plant, 0=no damage to plant. A digest of the protocol:
as §1

Experiment [5] deals with Lolium perenne (LOLPE). Briefly: Example B post-emergence herbicidal test, LOLPE. The following applies: Lolium perenne, 312 h, rate 250 g/ha, evaluated after 13 days, scale 0-100, read-out: Post-emergence activity LOLPE (100=total damage to plant; 0=no damage to plant). A digest of the protocol:
(§2)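 Score: 0 = no damage, 100 = total damage, assessed 13 days post-spray. Plants sprayed 8 days after sowing with aqueous dilution of acetone/water (50:50) formulation containing 0.5% Tween 20.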

The test system of experiment [6] is Alopecurus myosuroides (ALOMY). Briefly: Example B post-emergence herbicidal test, ALOMY. The note with it: Alopecurus myosuroides, 312 h, rate 250 g/ha, evaluated after 13 days, scale 0-100, read-out: Post-emergence activity ALOMY (100=total damage to plant; 0=no damage to plant). An outline of the steps: as §2
Experiment [7] deals with Echinochloa crus-galli (ECHCG). Briefly: Example B post-emergence herbicidal test, ECHCG. The following applies: Echinochloa crus-galli, 312 h, rate 250 g/ha, evaluated after 13 days, scale 0-100, read-out: Post-emergence activity ECHCG (100=total damage to plant; 0=no damage to plant). An outline of the steps:
as §2

The subject of experiment [8] is Avena fatua (AVEFA). Briefly: Example B post-emergence herbicidal test, AVEFA. The following applies: Avena fatua, 312 h, rate 250 g/ha, evaluated after 13 days, scale 0-100, read-out: Post-emergence activity AVEFA (100=total damage to plant; 0=no damage to plant). A digest of the protocol:
as §2

On to `Cc1cc(C)c(C2C(=O)CC(C(O)C3CCOCC3)C2=O)c(C)c1` (stereo not drawn) [Compound T3], for which the pest or weed control at 250 g/ha in experiment [1] is 60%; in experiment [2], 50%; in experiment [3], 20%; in experiment [4] it was 50%; in experiment [5] it was 70%; in experiment [6] it was 40%. For the same compound, the pest or weed control at 250 g/ha in experiment [7] and in experiment [8] was 70% in each case.
`Cc1cc(C)c(C2C(=O)CC(CC3CCS(=O)(=O)CC3)C2=O)c(C)c1` (stereo not drawn) [Compound T7]: the pest or weed control at 250 g/ha was 80% in experiment [1]; 70% in experiment [2]; 100% in experiment [3]; 50% in experiment [4]; 80% in experiment [5]; 100% in experiment [6]. The pest or weed control at 250 g/ha in experiment [7] and in experiment [8] was 90% throughout.
For the compound `Cc1cc(C)c(C2C(=O)C/C(=C\C3CCSCC3)C2=O)c(C)c1` (stereo not drawn) [Compound T9], the pest or weed control at 250 g/ha in experiment [1] was found to be 60%; in experiment [2], 20%; in experiment [3], 20%; in experiment [4], 0%; in experiment [5], 80%; in experiment [6], 60%. Also, the results for the pest or weed control at 250 g/ha in experiment [7] and in experiment [8] were 80% and 30%, respectively.
As for `Cc1cc(C)c(C2C(=O)C/C(=C\C3CC[S+]([O-])CC3)C2=O)c(C)c1` (stereo not drawn) [Compound T11], the pest or weed control at 250 g/ha in experiment [1] turned out to be 70%; in experiment [2], 30%; in experiment [3], 20%; in experiment [4] it was 0%; in experiment [5], 50%; in experiment [6] it was 60%. Besides, the pest or weed control at 250 g/ha in experiment [7] came to 70%; in experiment [8], 30%.
For the compound `Cc1cc(C)c(C2C(=O)C/C(=C\C3CCN(Cc4ccccc4)CC3)C2=O)c(C)c1` (stereo not drawn) [Compound T13], the pest or weed control at 250 g/ha came out at 30% in experiment [1]; 30% in experiment [2]; 10% in experiment [3]; 0% in experiment [4]; 30% in experiment [5]; 10% in experiment [6]. The results for the pest or weed control at 250 g/ha in experiment [7] and in experiment [8] were 40% and 0%, respectively.
As to `CC(=O)N1CCC(/C=C2\CC(=O)C(c3c(C)cc(C)cc3C)C2=O)CC1` (stereo not drawn) [Compound T15], the pest or weed control at 250 g/ha in experiment [1] turned out to be 100%; in experiment [2], 70%; in experiment [3] it was 100%; in experiment [4] it was 100%; in experiment [5], 100%; in experiment [6], 100%. Besides, the pest or weed control at 250 g/ha in experiment [7] and in experiment [8] was 100% throughout.
Turning to `Cc1cc(C)c(C2C(=O)CC(CC3CCCO3)C2=O)c(C)c1` (stereo not drawn) [Compound T18], the pest or weed control at 250 g/ha in experiment [1] stood at 100%; in experiment [2], 100%; in experiment [3], 100%; in experiment [4], 70%; in experiment [5], 100%; in experiment [6], 80%. Moreover, the figures for the pest or weed control at 250 g/ha in experiment [7] and in experiment [8] were 90% and 70%, respectively.
Turning to `Cc1cc(C)c(C2C(=O)CC(CCC3CCOCC3)C2=O)c(C)c1` (stereo not drawn) [Compound T21], the pest or weed control at 250 g/ha was found to be 100% in experiment [1]; 100% in experiment [2]; 90% in experiment [3]; 70% in experiment [4]; 90% in experiment [5]; 90% in experiment [6]. For the same compound, the pest or weed control at 250 g/ha in experiment [7] was found to be 80%; in experiment [8], 90%.
Regarding `CON1CCC(CC2CC(=O)C(c3c(C)cc(C)cc3C)C2=O)CC1` (stereo not drawn) [Compound T23], the pest or weed control at 250 g/ha in experiment [1] is 100%; in experiment [2], 100%; in experiment [3], 100%; in experiment [4] it was 100%; in experiment [5] it was 100%; in experiment [6], 90%. The pest or weed control at 250 g/ha in experiment [7] and in experiment [8] was 100% throughout.
For the compound `CC(=O)N1CCC(CC2CC(=O)C(c3c(C)cc(C)cc3C)C2=O)CC1` (stereo not drawn) [Compound T24], the pest or weed control at 250 g/ha in experiment [1] stood at 100%; in experiment [2], 100%; in experiment [3], 100%; in experiment [4], 90%; in experiment [5], 100%; in experiment [6], 90%. Further, the pest or weed control at 250 g/ha in experiment [7] and in experiment [8] was 100% throughout.
On to `Cc1cc(C)c(C2C(=O)CC(CC3CCC(C)O3)C2=O)c(C)c1` (stereo not drawn) [Compound T26], for which the pest or weed control at 250 g/ha in experiment [1] turned out to be 100%; in experiment [2], 70%; in experiment [3], 100%; in experiment [4], 60%; in experiment [5] it was 80%; in experiment [6], 60%. In addition, the pest or weed control at 250 g/ha in experiment [7] was determined as 60%; in experiment [8] it was 70%.
Take `Cc1cc(C)c(C2C(=O)CC(C)(C(O)C3CCOCC3)C2=O)c(C)c1` (stereo not drawn) [Compound T27]: the pest or weed control at 250 g/ha is 100% in experiment [1]; 90% in experiment [2]; 80% in experiment [3]; 60% in experiment [4]; 80% in experiment [5]; 70% in experiment [6]. Also, the pest or weed control at 250 g/ha was determined as 80% in experiment [7] and 70% in experiment [8].
For the compound `Cc1cc(C)c(C2C(=O)C(C)C(CC3CCOC3)C2=O)c(C)c1` (stereo not drawn) [Compound T29], the pest or weed control at 250 g/ha is 100% in experiment [1]; 70% in experiment [2]; 90% in experiment [3]; 50% in experiment [4]; 90% in experiment [5]; 70% in experiment [6]. For the same compound, the values for the pest or weed control at 250 g/ha in experiment [7] and in experiment [8] were 80% and 60%, respectively.
With `Cc1cc(C)c(C2C(=O)CC(C)(CC3CCOC3)C2=O)c(C)c1` (stereo not drawn) [Compound T30], the pest or weed control at 250 g/ha in experiment [1] worked out at 90%; in experiment [2], 60%; in experiment [3] it was 80%; in experiment [4] it was 30%; in experiment [5], 80%; in experiment [6], 80%. The pest or weed control at 250 g/ha in experiment [7] worked out at 80%; in experiment [8], 70%.
`Cc1cc(C)c(C2C(=O)C/C(=C\C3CCN(S(C)(=O)=O)C3)C2=O)c(C)c1` (stereo not drawn) [Compound T31]: the pest or weed control at 250 g/ha was determined as 90% in experiment [1]; 80% in experiment [2]; 80% in experiment [3]; 90% in experiment [4]; 70% in experiment [5]; 90% in experiment [6]. Also, the pest or weed control at 250 g/ha in experiment [7] was 80%; in experiment [8], 90%.

Values taken from patent publication US9096560B2, “5-heterocyclylalkyl-3-hydroxy-2-phenylcyclopent-2-enones as herbicides” (Syngenta Limited, priority 2008, dated 2015).
